In patent US10107817B2, “Oligopeptide specific to ovarian cancer, polynucleotide for encoding oligopeptide, test kit for detecting ovarian cancer and method for detecting ovarian cancer” (NATIONAL TSING HUA UNIVERSITY, priority 2016, dated 2018):

How the values were obtained:
[1] = system: normal cervical epithelial cell; assay: Binding of the FAM-labelled oligopeptide to control cells, fluorescence microscopy; settings: 12-well plate, 1×10^5 cells/well, 60 rpm, 60 minutes, room temperature, FIG. 3
Description: (§1) In subsequent examples, the oligopeptide of the present disclosure is used to detect whether the sample has the oligopeptide-cancer cell complex. The oligopeptide consisted of the amino acid sequence of SEQ ID NO: 1 is chemically synthesized and modified a green fluorescence (FAM) at N-terminus in subsequent examples.
(§2) The sample uses in this example is the ovarian cancer cell, wherein the ovarian cancer cell is OVCAR3 cell (a human serous epithelial ovarian cancer cell line). Besides, a normal cervical epithelial cell is used as the control. The OVCAR3 cell and the normal cervical epithelial cell are cultured and stored in Department of Obstetrics and Gynecology of National Cheng Kung University Hospital. The OVCAR3 cell and the normal cervical epithelial cell are respectively seeded in a 12-well plate with 1×10^5 cells/well and then maintained at 37° C. in a humidified atmosphere of 5% CO2 until the cells are adhered in the next day. The oligopeptide modified with the green fluorescence is respectively mixed with different groups of the sample at 60 rpm for 60 minutes at room temperature. The sample is washed several times with the PBS containing 1% BSA. Then the sample is observed under a fluorescence microscopy, wherein the green fluorescent signal represents that the oligopeptide-cancer cell complex is presented in the sample.

[2] = system: ovarian serous tumor tissue section; assay: Binding of the FAM-labelled oligopeptide to ovarian cancer tissue sections, fluorescence microscopy; settings: 60 rpm, 60 minutes, room temperature, FIG. 2
Description: as §1
(§3) The sample uses in this example is the ovarian cancer tissue including an ovarian serous tumor tissue section, an ovarian mucinous tumor tissue section and an ovarian clear cell carcinoma tissue section. Besides, a normal ovarian tissue section is used as a control. The oligopeptide modified with the green fluorescence is respectively mixed with different groups of the sample at 60 rpm for 60 minutes at room temperature. The samples are washed several times with PBS containing 1% BSA. Then the sample is observed under a fluorescence microscopy, wherein the green fluorescent signal represents that the oligopeptide-cancer cell complex is presented in the sample.

[3] = system: ovarian clear cell carcinoma tissue section; assay: as above; settings: 60 rpm, 60 minutes, room temperature, FIG. 2
Description: as §1, §3

[4] = system: ovarian mucinous tumor tissue section; assay: as above; settings: 60 rpm, 60 minutes, room temperature, FIG. 2
Description: as §1, §3

[5] = system: OVCAR3 cell; assay: Binding of the FAM-labelled oligopeptide to ovarian cancer cells, fluorescence microscopy; parameters: species or system human; settings: 12-well plate, 1×10^5 cells/well, 60 rpm, 60 minutes, room temperature, FIG. 3
Description: as §1, §2

[6] = system: normal ovarian tissue section; assay: Binding of the FAM-labelled oligopeptide to control tissue section, fluorescence microscopy; settings: 60 rpm, 60 minutes, room temperature, FIG. 2
Description: as §1, §3

Which results are given for “oligopeptide of the present disclosure: oligopeptide consisted of the amino acid sequence of SEQ ID NO: 1, chemically synthesized, specific to ovarian cancer (KRLTPLSPDHYD)”?
FAM signal (oligopeptide-cancer cell complex) [1]: no significant FAM signal detected; green fluorescent signal (oligopeptide-cancer cell complex) [2]: green fluorescent signal can be detected; green fluorescent signal (oligopeptide-cancer cell complex) [3]: green fluorescent signal can be detected; green fluorescent signal (oligopeptide-cancer cell complex) [4]: green fluorescent signal can be detected; FAM signal (oligopeptide-cancer cell complex) [5]: FAM signal can be detected; green fluorescent signal (oligopeptide-cancer cell complex) [6]: no significant green fluorescent signal detected
